According to publication PMC8712300 (European Journal of Nuclear Medicine and Molecular Imaging, 2021):
Where “and” joins values, the source holds several entries; their conditions need not be identical. Equal values may be shown once. Read-outs that look alike come from different tables or passages of the source.

Tests used:
[1] = molecular target: central benzodiazepine receptor (CBR); conditions: read-out: Ki CBR; displacement of [^3H]flunitrazepam, rat cerebral cortex
Description: (§1) The binding assay was performed following a previously published procedure [22], with slight modifications.

[2] = molecular target: T1, TSPO (Rattus norvegicus, UniProt P16257); experiment: biochemical
Description: as §1

[3] = molecular target: TSPO-WT (HAB) (Homo sapiens, UniProt P30536, T147A); experiment: biochemical
[4] = molecular target: TSPO-mutant A147T (LAB) (Homo sapiens, UniProt P30536); experiment: biochemical
[5] = molecular target: T1, TSPO
[6] = n-octanol/PBS pH 7.4, individual replicates
Description: (§2) After vortexing for 1 min, each tube was placed on a table at 25 °C for 3 min. Samples of each phase (100 μL) were counted for radioactivity using a gamma-counter. Log D is expressed as the logarithm of the ratio of the count of n-octanol to that of PBS.

[7] = 37 °C, 120 min
Description: Aliquots (0.2 mL) were collected at 0, 15, 30, 60, and 120 min and mixed with acetonitrile (0.2 mL), and then centrifuged at 3500 rpm for 5 min. The resulting supernatants were analyzed using a radio-TLC scanner with the developing solvent (50% ethyl acetate-hexane).

[8] = normal mice, PET 90 min
Description: Normal male C57BL/6 mice (n = 4, 6–7 weeks old, Orientbio Inc.) were used to perform in vivo organ distribution and dosimetry studies (see methodological details in the SI).
All the mice (n = 4) were anesthetized with 2% isoflurane. […] The CT images were used to draw region of interest (ROI) on the following organs: the brain, heart, lung, liver, stomach, urinary bladder, intestine kidneys and adrenals. […] The accumulated activity for each organ were calculated by using the area under curve (AUC) of TACs.

[9] = not given; remark: listed apart in the source
[10] = molecular target: T1, TSPO; remark: listed apart in the source
Description: Male Sprague–Dawley rats (7–8 weeks old, Orientbio Inc.) were used to create rat models of neuroinflammation and ischemic stroke (n = 4 for each model). An acute neuroinflammation rat model was generated by injecting lipopolysaccharides (LPS, 50 μg) into the right striatum of rat brain according to our previous protocol [26]. […] In the case of LPS-induced neuroinflammatory model, rats were anesthetized with ketamine hydrochloride (50 mg/kg) and xylazine hydrochloride (0.2 mg/kg) before LPS injection.
The PET imaging study was performed using a dedicated animal PET/CT scanner (NanoPET/CT; Mediso Inc., Budapest, Hungary) with a 10-cm axial field-of-view (FOV) and a 12-cm transaxial FOV. Before PET imaging, the rats were anesthetized with 2% isoflurane. […]
(§3) The volumes of interest (VOIs) were drawn around the peak PET activity on the ipsilateral region in a coronal PET/CT slice, and symmetrically pasted into the contralateral side on the same slice to yield a contralateral VOI of identical volume and shape. […] Decay-corrected radioactivity in the VOI was expressed as the standardized uptake value (SUV), which was normalized to the injected radioactivity and body weight of the rat using PMOD software version 3.6 (PMOD Technologies Ltd., Zurich, Switzerland). […] The binding potential (BPND) was also calculated as a quantitative value, which represented the receptor binding with the radioligand. […]

[11] = molecular target: T1, TSPO; remark: listed apart in the source
Excerpt: Male Sprague–Dawley rats (7–8 weeks old, Orientbio Inc.) were used to create rat models of neuroinflammation and ischemic stroke (n = 4 for each model). […] An ischemic stroke rat model was generated via 60-min occlusion of the right middle cerebral artery (MCAO), as previously described [27]. […] In the case of ischemic stroke model, rats were anesthetized with 5% isoflurane in the presence of 30% nitrous oxide and 70% oxygen, and then were under anesthesia with 2% isoflurane in the presence of 30% nitrous oxide and 70% oxygen during MCAO surgery.
The PET imaging study was performed using a dedicated animal PET/CT scanner (NanoPET/CT; Mediso Inc., Budapest, Hungary) with a 10-cm axial field-of-view (FOV) and a 12-cm transaxial FOV. […]
as §3

[12] = physchem; conditions: n-octanol/PBS
Description: as §2

[13] = in vitro; conditions: rat, rat plasma
Description: (§4) Plasma protein binding (PPB) was measured using two plasma samples obtained from five rats and a healthy volunteer. […] The mixtures were transferred to the Amicon® Ultra 30 K device (Merck Millipore, USA), and centrifuged at 12,000 rpm for 15 min. […] The plasma-free fraction (fP) was calculated as fp = (APfree /APtotal)/(ASfree/AStotal).

[14] = in vitro; conditions: human, human plasma
Description: as §4

T1 sequence (P16257 whole entry): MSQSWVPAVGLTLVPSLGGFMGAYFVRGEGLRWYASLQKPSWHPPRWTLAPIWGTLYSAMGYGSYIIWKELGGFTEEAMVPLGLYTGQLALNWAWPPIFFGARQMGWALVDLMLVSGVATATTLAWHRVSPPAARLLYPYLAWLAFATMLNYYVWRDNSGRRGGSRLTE
TSPO-WT (HAB), sequence (P30536 whole entry T147A): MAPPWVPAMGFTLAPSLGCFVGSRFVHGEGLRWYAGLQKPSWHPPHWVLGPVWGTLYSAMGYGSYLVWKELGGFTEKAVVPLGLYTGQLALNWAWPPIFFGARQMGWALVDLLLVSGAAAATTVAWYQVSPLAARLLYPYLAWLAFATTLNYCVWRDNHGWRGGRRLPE
TSPO-mutant A147T (LAB), sequence (P30536 whole entry, stated change not applied): as the sequence (P30536 whole entry T147A) above, with A147T counted along it

CCCN(CCC)C(=O)Cc1c(-c2ccc(F)cc2)nc2c(Cl)cc(Cl)cn12 [BS224]
Ki [1]: > 100000 nM
Ki [2]: 0.51 ± 0.03 nM
IC50 [3]: 590 ± 40 nM
IC50 [4]: 450 ± 20 nM

CCCN(CCC)C(=O)Cc1c(-c2ccc(OCCF)cc2)nc2c(Cl)cc(Cl)cn12 [CB251]
Ki [1]: > 100000 nM

CN1C(=O)CN=C(c2ccccc2F)c2cc([N+](=O)[O-])ccc21 [Flunitrazepam]
Ki [1]: 6.2 ± 0.1 nM

CCC(C)N(C)C(=O)c1cc2ccccc2c(-c2ccccc2Cl)n1 (stereo not drawn) [PK 11195]
Ki [1]: > 100000 nM
effect on [^18F]BS224 radioactivity in brain slices (blocking) [5]: significant reduction of radioactivity

CCCN(CCC)C(=O)Cc1c(-c2ccc([18F])cc2)nc2c(Cl)cc(Cl)cn12 [[^18F]BS224, 2-(-2-(4-[^18F]fluorophenyl)-6,8-dichloro-imidazo[1,2-a]pyridin-3-yl)-N,N-dipropylacetamide]
Log D (single measurements 1-5) [6]: 2.754 and 2.735
parent compound remained intact in human serum [7]: over 99%
% in heart, Parent (30 min): Intact
% in kidneys, Parent (30 min): Intact
% in liver, Parent (30 min): 73.6% and 73.6 ± 5.9%
% in lung, Parent (30 min): Intact
% in plasma, Parent (30 min): 90.7 ± 0.8%
% in brain, Parent (30 min after i.v. injection, rat): Intact
% in heart, Parent (90 min): Intact
% in kidneys, Parent (90 min): Intact
% in liver, Parent (90 min): 53.1% and 53.1 ± 2.7%
% in lung, Parent (90 min): Intact
% in plasma, Parent (90 min): 69.2 ± 2.9%
% in brain, Parent (90 min after i.v. injection, rat): Intact
radioactivity in the femur (in vivo defluorination) (gamma counting, rat): no radioactivity could be detected
AUC Brain [8]: 201.75±19.25 %ID/g min
AUC Heart [8]: 442.73±84.59 %ID/g min
AUC Intestine [8]: 250.45±7.71 %ID/g min
AUC Kidney [8]: 1345.08±260.65 %ID/g min
AUC Liver [8]: 1102.68±140.38 %ID/g min
AUC Lung [8]: 403.48±82.21 %ID/g min
AUC Stomach [8]: 198.98±53.18 %ID/g min
AUC Urinary Bladder [8]: 91.44±21.23 %ID/g min
Cmax Brain [8]: 5.78±1.51 %ID/g
Cmax Heart [8]: 20.81±8.05 %ID/g
Cmax Intestine [8]: 3.66±0.19 %ID/g
Cmax Kidney [8]: 16.33±3.08 %ID/g
Cmax Liver [8]: 16.21±1.95 %ID/g
Cmax Lung [8]: 14.38±5.88 %ID/g
Cmax Stomach [8]: 3.12±0.81 %ID/g
Cmax Urinary Bladder [8]: 1.35±0.22 %ID/g
Tmax Brain [8]: 1.83 ± 0.68 min
Tmax Heart [8]: 0.83 ± 0.20 min
Tmax Intestine [8]: 38.96 ± 21.39 min
Tmax Kidney [8]: 64.38 ± 16.21 min
Tmax Liver [8]: 38.29 ± 20.60 min
Tmax Lung [8]: 0.71 ± 0.24 min
Tmax Stomach [8]: 41.88 ± 23.30 min
Tmax Urinary Bladder [8]: 45.94 ± 14.36 min
Effective dose (estimated whole-body human) ([9]; extrapolated from normal mouse data): 5.18 μSv/MBq and 05.18 ± 1.03 μSv/MBq
Estimated Human Absorbed Dose, Adrenals ([9]; from normal mouse data): 09.66 ± 2.52 µGy/MBq
Estimated Human Absorbed Dose, Brain ([9]; from normal mouse data): 04.87 ± 0.90 µGy/MBq
Estimated Human Absorbed Dose, Breast ([9]; from normal mouse data): 02.28 ± 0.60 µGy/MBq
Estimated Human Absorbed Dose, Colon wall ([9]; from normal mouse data): 02.79 ± 0.55 µGy/MBq
Estimated Human Absorbed Dose, ET region ([9]; from normal mouse data): 00.75 ± 0.14 µGy/MBq
Estimated Human Absorbed Dose, Endosteum (bone surface) ([9]; from normal mouse data): 00.91 ± 0.19 µGy/MBq
Estimated Human Absorbed Dose, Eye lenses ([9]; from normal mouse data): 00.52 ± 0.09 µGy/MBq
Estimated Human Absorbed Dose, Gallbladder wall ([9]; from normal mouse data): 14.98 ± 3.89 µGy/MBq
Estimated Human Absorbed Dose, Heart wall ([9]; from normal mouse data): 10.54 ± 3.14 µGy/MBq
Estimated Human Absorbed Dose, Kidneys ([9]; from normal mouse data): 26.23 ± 8.91 µGy/MBq
Estimated Human Absorbed Dose, Liver ([9]; from normal mouse data): 28.88 ± 7.70 µGy/MBq
Estimated Human Absorbed Dose, Lung ([9]; from normal mouse data): 07.99 ± 2.42 µGy/MBq
Estimated Human Absorbed Dose, Lymphatic nodes ([9]; from normal mouse data): 02.60 ± 0.55 µGy/MBq
Estimated Human Absorbed Dose, Muscle ([9]; from normal mouse data): 00.77 ± 0.17 µGy/MBq
Estimated Human Absorbed Dose, Oesophagus ([9]; from normal mouse data): 03.90 ± 1.04 µGy/MBq
Estimated Human Absorbed Dose, Oral mucosa ([9]; from normal mouse data): 00.50 ± 0.09 µGy/MBq
Estimated Human Absorbed Dose, Pancreas ([9]; from normal mouse data): 07.79 ± 1.88 µGy/MBq
Estimated Human Absorbed Dose, Prostate ([9]; from normal mouse data): 00.43 ± 0.05 µGy/MBq
Estimated Human Absorbed Dose, Red (active) bone marrow ([9]; from normal mouse data): 02.01 ± 0.45 µGy/MBq
Estimated Human Absorbed Dose, Salivary glands ([9]; from normal mouse data): 00.49 ± 0.09 µGy/MBq
Estimated Human Absorbed Dose, Skin ([9]; from normal mouse data): 00.54 ± 0.12 µGy/MBq
Estimated Human Absorbed Dose, Small intestine wall ([9]; from normal mouse data): 07.30 ± 0.29 µGy/MBq
Estimated Human Absorbed Dose, Spleen ([9]; from normal mouse data): 02.90 ± 0.71 µGy/MBq
Estimated Human Absorbed Dose, Stomach wall ([9]; from normal mouse data): 09.06 ± 3.12 µGy/MBq
Estimated Human Absorbed Dose, Testes ([9]; from normal mouse data): 00.06 ± 0.00 µGy/MBq
Estimated Human Absorbed Dose, Thymus ([9]; from normal mouse data): 01.88 ± 0.52 µGy/MBq
Estimated Human Absorbed Dose, Thyroid ([9]; from normal mouse data): 00.95 ± 0.25 µGy/MBq
Estimated Human Absorbed Dose, Urinary bladder wall ([9]; from normal mouse data): 09.46 ± 2.73 µGy/MBq
skull uptake ([10]; LPS model PET): not observed
BPND ([10]; LPS model, SRTM, contralateral side as reference): 1.43 ± 0.17
skull uptake ([11]; ischemic stroke model PET): not observed
BPND ([11]; ischemic stroke model, SRTM, contralateral side as reference): 1.57 ± 0.37
logD ([12]; pH 7.4, Log D (single measurements 1-5), n-octanol/PBS pH 7.4, individual replicates): 2.78
logD ([12]; pH 7.4, Log D, n-octanol/PBS pH 7.4, 25 °C, average n = 5): 2.78 ± 0.04
fraction unbound at 10 min, 1.19 MBq/mL [13]: 0.064 ± 0.003
fraction unbound at 10 min, 1.19 MBq/mL [14]: 0.049 ± 0.005
